The values below come from the NIST ThermoML archive (doi:10.1016/j.jct.2012.04.015).

In general, refractive index refers to the speed of light in vacuum divided by its phase velocity in the sample. A word on the mass density: it is mass per unit of volume.

± gives the expanded uncertainty stated by the source.

The first data set in a line: refractive index (Na D-line) (dimensionless). Conditions: 298.15 K; 101.33 kPa; Liquid; Standard Abbe refractometry.
With `CCCCn1cc[n+](C)c1.O=S(=O)([O-])C(F)(F)F` [1-butyl-3-methylimidazolium trifluoromethanesulfonate], the refractive index worked out at 1.43895 ± 0.00037.

`C1CCCCC1` [cyclohexane]: the refractive index turned out to be 1.42356 ± 0.00031.

Take `Cc1ccccc1` [toluene]: the refractive index came to 1.49398 ± 0.00031.

As for `CCCCCC[n+]1ccn(C)c1.O=S(=O)([N-]S(=O)(=O)C(F)(F)F)C(F)(F)F`, the refractive index is 1.43016 ± 0.00037.

`CCCCCCC` [heptane]: the refractive index is given as 1.38529 ± 0.00033.

Staying with this data set, now noted: 303.15 K; 101.33 kPa; Liquid; Standard Abbe refractometry.
Consider `CCCCCCn1cc[n+](C)c1.O=S(=O)([O-])C(F)(F)F` [1-hexyl-3-methylimidazolium trifluoromethanesulfonate], for which the refractive index amounted to 1.43926 ± 0.00037.

Assay in the next data set: not given
Conditions: 298.15 K; 101.33 kPa; Liquid; Vibrating tube method.
Regarding `CCCCn1cc[n+](C)c1.O=S(=O)([O-])C(F)(F)F` [1-butyl-3-methylimidazolium trifluoromethanesulfonate], the mass density is on record as 1303.63 ± 0.49 kg/m3.

For `C1CCCCC1` [cyclohexane], the mass density came out at 773.88 ± 0.13 kg/m3.

In the case of `Cc1ccccc1` [toluene], the mass density came to 862.23 ± 0.1 kg/m3.

In the case of `CCCCCC[n+]1ccn(C)c1.O=S(=O)([N-]S(=O)(=O)C(F)(F)F)C(F)(F)F`, the mass density stood at 1371.99 ± 0.55 kg/m3.

Turning to `CCCCCCC` [heptane], the mass density turned out to be 679.57 ± 0.18 kg/m3.

Still in this data set, the particulars now being: 303.15 K; 101.33 kPa; Liquid; Vibrating tube method.
With `CCCCCCn1cc[n+](C)c1.O=S(=O)([O-])C(F)(F)F` [1-hexyl-3-methylimidazolium trifluoromethanesulfonate], the mass density came to 1232.55 ± 0.43 kg/m3.
